Target: MAPK14 (human) (UniProt Q16539)
Test: Enzyme Assay

Chain of MAPK14 (human) (Q16539 whole entry, looked up): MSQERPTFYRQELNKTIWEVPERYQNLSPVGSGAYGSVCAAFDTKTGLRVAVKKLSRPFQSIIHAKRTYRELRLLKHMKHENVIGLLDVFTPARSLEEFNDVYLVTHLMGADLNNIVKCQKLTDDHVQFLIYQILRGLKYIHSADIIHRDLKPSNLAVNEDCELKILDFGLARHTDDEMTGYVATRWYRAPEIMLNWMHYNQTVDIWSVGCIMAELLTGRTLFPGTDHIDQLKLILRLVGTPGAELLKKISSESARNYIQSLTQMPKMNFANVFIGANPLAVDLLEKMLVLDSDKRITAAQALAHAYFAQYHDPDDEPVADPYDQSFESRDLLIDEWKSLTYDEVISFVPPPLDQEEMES

## Cc1ccc(-n2nc(C(C)(C)C)cc2NC(=O)N[C@H]2CC[C@@H](Oc3ccc4nnc([C@@H]5CCCCN5C)n4c3)c3ccccc32)cc1
  IC50: < 0.01 µM

## Cc1ccc(-n2nc(C(C)(C)C)cc2NC(=O)N[C@H]2CC[C@@H](Oc3ccc4nnc([C@H]5COCCN5C)n4c3)c3ccccc32)cc1
  IC50: < 0.01 µM

## CC(C)(C)c1cc(NC(=O)N[C@H]2CC[C@@H](Oc3ccc4nnc(N5CCCCC5)n4c3)c3ccccc32)n(-c2cccc(OCCO)c2)n1
  IC50: < 0.01 µM

## Cc1ccc(-n2nc(C(C)(C)C)cc2NC(=O)N[C@H]2CC[C@@H](Oc3ccc4nnc(N(C)CCN(C)C)n4c3)c3ccccc32)cc1
  IC50: < 0.01 µM

## Cc1ccc(-n2nc(C(C)(C)C)cc2NC(=O)N[C@H]2CC[C@@H](Oc3ccc4nnc(C(C)(C)N5CCCC5)n4c3)c3ccccc32)cc1
  IC50: < 0.01 µM

## Cc1ccc(-n2nc(C(C)(C)C)cc2NC(=O)N[C@H]2CC[C@@H](Oc3ccc4nnc([C@@H]5CCCN5C(C)C)n4c3)c3ccccc32)cc1
  IC50: < 0.01 µM

## CN1CCN(Cc2cccc(-n3nc(C(C)(C)C)cc3NC(=O)N[C@H]3CC[C@@H](Oc4ccc5nnc(N6CCCCC6)n5c4)c4ccccc43)c2)CC1
  IC50: < 0.01 µM

## C[C@H]1CCCCN1c1nnc2ccc(O[C@@H]3CC[C@H](NC(=O)Nc4cc(C(C)(C)C)nn4-c4cccc(OCCN5CCOCC5)c4)c4ccccc43)cn12
  IC50: < 0.01 µM

## C[C@H]1CCCCN1c1nnc2ccc(O[C@@H]3CC[C@H](NC(=O)Nc4cc(C(C)(C)C)nn4-c4ccc(CN5CCCCC5)cc4)c4ccccc43)cn12
  IC50: < 0.01 µM

## CN1CCC[C@H]1c1nnc2ccc(O[C@@H]3CC[C@H](NC(=O)Nc4cc(C(C)(C)C)nn4-c4ccc(CO)cc4)c4ccccc43)cn12
  IC50: < 0.01 µM

## Cc1ccc(-n2nc(C(C)(C)C)cc2NC(=O)N[C@H]2CC[C@@H](Oc3ccc4nnc(CN5CCN(C)C(CO)C5)n4c3)c3ccccc32)cc1 (some centres undefined)
  IC50: < 0.01 µM

## Cc1ccc(-n2nc(C(C)(C)C)cc2NC(=O)N[C@H]2CC[C@@H](Oc3ccc4nnc(N5CCC(O)CC5)n4c3)c3ccccc32)cc1
  IC50: < 0.01 µM

## Cc1ccc(-n2nc(C(C)(C)C)cc2NC(=O)N[C@H]2CC[C@@H](Oc3ccc4nnc(N5CCC[C@@H]5CO)n4c3)c3ccccc32)cc1
  IC50: < 0.01 µM

## COCCN(C)Cc1ccc(-n2nc(C(C)(C)C)cc2NC(=O)N[C@H]2CC[C@@H](Oc3ccc4nnc(N5CCCC[C@@H]5C)n4c3)c3ccccc32)cc1
  IC50: < 0.01 µM

## Cc1ccc(-n2nc(C(C)(C)C)cc2NC(=O)N[C@H]2CC[C@@H](Oc3ccc4nnc(N5CCCOCC5)n4c3)c3ccccc32)cc1
  IC50: < 0.01 µM

## C[C@H]1CCCCN1c1nnc2ccc(O[C@@H]3CC[C@H](NC(=O)Nc4cc(C(C)(C)C)on4)c4ccccc43)cn12
  IC50: < 0.01 µM

## CC(C)(C)c1cc(NC(=O)N[C@H]2CC[C@@H](Oc3ccc4nnc(N5CCCCC5)n4c3)c3ccccc32)n(-c2ccc(O)cc2)n1
  IC50: < 0.01 µM

## COc1c(NC(=O)N[C@H]2CC[C@@H](Oc3ccc4nnc([C@@H]5CCCN5C)n4c3)c3ccccc32)cc(C(C)(C)C)cc1NS(C)(=O)=O
  IC50: < 0.01 µM

## Cc1ccc(-n2nc(C(C)(C)C)cc2NC(=O)N[C@H]2CC[C@@H](Oc3ccc4nnc([C@H]5CCCN5C)n4c3)c3ccccc32)cc1
  IC50: < 0.01 µM

## C[C@H]1CCCCN1c1nnc2ccc(O[C@@H]3CC[C@H](NC(=O)Nc4cc(C(C)(C)C)nn4-c4cccc(CN5CCOCC5)c4)c4ccccc43)cn12
  IC50: < 0.01 µM

## C[C@H]1CCCCN1c1nnc2ccc(O[C@@H]3CC[C@H](NC(=O)Nc4cc(C(C)(C)C)nn4-c4cccc(CCN(C)C)c4)c4ccccc43)cn12
  IC50: < 0.01 µM

## C[C@H]1CCCCN1c1nnc2ccc(O[C@@H]3CC[C@H](NC(=O)Nc4cc(C(C)(C)C)nn4-c4cccc(CN5CCN(C)CC5)c4)c4ccccc43)cn12
  IC50: < 0.01 µM

## C[C@H]1CCCCN1c1nnc2ccc(O[C@@H]3CC[C@H](NC(=O)Nc4cc(C(C)(C)C)nn4CCN4CCN(C)CC4)c4ccccc43)cn12
  IC50: < 0.01 µM

## Cc1ccc(-n2nc(C(C)(C)C)cc2NC(=O)N[C@H]2CC[C@@H](Oc3ccc4nnc(N5CCC[C@@H](CO)C5)n4c3)c3ccccc32)cc1
  IC50: < 0.01 µM

## C[C@H]1CCCCN1c1nnc2ccc(O[C@@H]3CC[C@H](NC(=O)Nc4cc(C(C)(C)C)nn4-c4cccc(CCN5CCN(C)CC5)c4)c4ccccc43)cn12
  IC50: < 0.01 µM

## CC(C)(C)c1cc(NC(=O)N[C@H]2CC[C@@H](Oc3ccc4nnc(N5CCCCC5)n4c3)c3ccccc32)n(-c2cccc(COCCO)c2)n1
  IC50: < 0.01 µM

## Cc1ccc(-n2nc(C(C)(C)C)cc2NC(=O)N[C@H]2CC[C@@H](Oc3ccc4nnc(N5CC[C@@H](CO)C5)n4c3)c3ccccc32)cc1
  IC50: < 0.01 µM

## Cc1ccc(-n2nc(C(C)(C)C)cc2NC(=O)N[C@H]2CC[C@@H](Oc3ccc4nnc(-c5ccccc5CN5CCOCC5)n4c3)c3ccccc32)cc1
  IC50: < 0.01 µM

## Cc1ccc(-n2nc(C(C)(C)C)cc2NC(=O)N[C@H]2CC[C@@H](Oc3ccc4nnc(CN5CCNCC5)n4c3)c3ccccc32)cc1
  IC50: < 0.01 µM

## C[C@@H]1CCC[C@H](C)N1c1nnc2ccc(O[C@@H]3CC[C@H](NC(=O)Nc4cc(C(C)(C)C)nn4CCN4CCOCC4)c4ccccc43)cn12
  IC50: < 0.01 µM

## C[C@H]1CCCCN1c1nnc2ccc(O[C@@H]3CC[C@H](NC(=O)Nc4cc(C(C)(C)C)nn4-c4cccc(CN(C)C)c4)c4ccccc43)cn12
  IC50: < 0.01 µM

## CN(C)CCCn1cc(-n2nc(C(C)(C)C)cc2NC(=O)N[C@H]2CC[C@@H](Oc3ccc4nnc(N5CCCCC5)n4c3)c3ccccc32)cn1
  IC50: < 0.01 µM

## C[C@H]1CCCCN1c1nnc2ccc(O[C@@H]3CC[C@H](NC(=O)Nc4cc(C(C)(C)C)nn4-c4cccc(OCCN5CCCN(C)CC5)c4)c4ccccc43)cn12
  IC50: < 0.01 µM

## C[C@H]1CCCCN1c1nnc2ccc(O[C@@H]3CC[C@H](NC(=O)Nc4cc(C(C)(C)C)nn4-c4cccc(CN5CCC(F)CC5)c4)c4ccccc43)cn12
  IC50: < 0.01 µM

## Cc1ccc(-n2nc(C(C)(C)C)cc2NC(=O)N[C@H]2CC[C@@H](Oc3ccc4nnc(N)n4c3)c3ccccc32)cc1
  IC50: < 0.01 µM

## Cc1ccc(-n2nc(C(C)(C)C)cc2NC(=O)N[C@H]2CC[C@@H](Oc3ccc4nnc(N(C)CCN5CCOCC5)n4c3)c3ccccc32)cc1
  IC50: < 0.01 µM

## Cc1ccc(-n2nc(C(C)(C)C)cc2NC(=O)N[C@H]2CC[C@@H](Oc3ccc4nnc([C@H]5CCCN5)n4c3)c3ccccc32)cc1
  IC50: < 0.01 µM

## CCOC(=O)c1cccc(-n2nc(C(C)(C)C)cc2NC(=O)N[C@H]2CC[C@@H](Oc3ccc4nnc([C@@H]5CCCN5C)n4c3)c3ccccc32)c1
  IC50: < 0.01 µM

## Cc1ccc(-n2nc(C(C)(C)C)cc2NC(=O)N[C@H]2CC[C@@H](Oc3ccc4nnc(N5CCCN(C)CC5)n4c3)c3ccccc32)cc1
  IC50: < 0.01 µM

## C[C@H]1CCCCN1c1nnc2ccc(O[C@@H]3CC[C@H](NC(=O)Nc4cc(C(C)(C)C)nn4-c4cccc(OCCN(C)C)c4)c4ccccc43)cn12
  IC50: < 0.01 µM

## CC(C)(C)c1cc(NC(=O)N[C@H]2CC[C@@H](Oc3ccc4nnc(N5CCCCC5)n4c3)c3ccccc32)n(-c2cccc(CN3CCN(CCO)CC3)c2)n1
  IC50: < 0.01 µM

## Cc1ccc(-n2nc(C(C)(C)C)cc2NC(=O)N[C@H]2CC[C@@H](Oc3ccc4nnc([C@@H](C)N5CCOCC5)n4c3)c3ccccc32)cc1.Cc1ccc(-n2nc(C(C)(C)C)cc2NC(=O)N[C@H]2CC[C@@H](Oc3ccc4nnc([C@H](C)N5CCOCC5)n4c3)c3ccccc32)cc1
  IC50: < 0.01 µM

## C[C@H]1CCCCN1c1nnc2ccc(O[C@@H]3CC[C@H](NC(=O)Nc4cc(C(C)(C)C)nn4-c4cccc(CCN5CCCOCC5)c4)c4ccccc43)cn12
  IC50: < 0.01 µM

## Cc1ccc(-n2nc(C(C)(C)C)cc2NC(=O)N[C@H]2CC[C@@H](Oc3ccc4nnc(N5CCC[C@H](O)C5)n4c3)c3ccccc32)cc1
  IC50: < 0.01 µM

## Cc1ccc(-n2nc(C(C)(C)C)cc2NC(=O)N[C@H]2CC[C@@H](Oc3ccc4nnc(N5CCC(CCO)CC5)n4c3)c3ccccc32)cc1
  IC50: < 0.01 µM

## Cc1ccc(-n2nc(C(C)(C)C)cc2NC(=O)N[C@H]2CC[C@@H](Oc3ccc4nnc(N5CCN(C)CC5)n4c3)c3ccccc32)cc1
  IC50: < 0.01 µM

## Cc1ccc(-n2nc(C(C)(C)C)cc2NC(=O)N[C@H]2CC[C@@H](Oc3ccc4nnc(N5[C@H](C)CCC[C@@H]5C)n4c3)c3ccccc32)cc1
  IC50: < 0.01 µM

## CN1CCC[C@H]1c1nnc2ccc(O[C@@H]3CC[C@H](NC(=O)Nc4cc(C(C)(C)C)nn4-c4cccc(OCCO)c4)c4ccccc43)cn12
  IC50: < 0.01 µM

## Cc1ccc(-n2nc(C(C)(C)C)cc2NC(=O)N[C@H]2CC[C@H](Oc3ccc4nnc(N5CCCCC5)n4c3)c3ccccc32)cc1
  IC50: < 0.01 µM

## C[C@H]1CCCCN1c1nnc2ccc(O[C@@H]3CC[C@H](NC(=O)Nc4cc(C(C)(C)C)nn4-c4cccc(CCN5CCCC5)c4)c4ccccc43)cn12
  IC50: < 0.01 µM

## Cc1ccc(-n2nc(C(C)(C)C)cc2NC(=O)N[C@H]2CC[C@@H](Oc3ccc4nnc(N5CC[C@H](CO)C5)n4c3)c3ccccc32)cc1
  IC50: < 0.01 µM

## C[C@H]1CCCCN1c1nnc2ccc(O[C@@H]3CC[C@H](NC(=O)Nc4cc(C(C)(C)C)nn4CCN4CCOCC4)c4ccccc43)cn12
  IC50: < 0.01 µM

## CC(C)(C)c1cc(NC(=O)N[C@H]2CC[C@@H](Oc3ccc4nnc(N5CCCCC5)n4c3)c3ccccc32)n(-c2cnn(CCCN3CCOCC3)c2)n1
  IC50: < 0.01 µM

## Cc1ccc(-n2nc(C(C)(C)C)cc2NC(=O)N[C@H]2CC[C@H](Oc3ccc4nnc([C@@H]5CCCN5C)n4c3)c3ccccc32)cc1
  IC50: < 0.01 µM

From the Kinase Knowledgebase extract (Sharma et al. 2016)
